The values below are quoted from earlier work in patent publication US11877989B2, “Nutritional supplement containing L-α-glycerophosphorylcholine” (Energy Beverages LLC, priority 2020, dated 2024).

Series [1] relates to subjects. The settings on record: in vivo.
The conditions of series [2]: six weeks of supplementation.
For series [3] the following is noted: in vivo and in vitro assays.
For series [4] the following is noted: single intramuscular dose.
Another series concerns healthy male subjects. The note with it: 1000 mg ingested, 60 min after taking.
The subject of series [5] is subjects. The note with it: 600 mg per day, after 6 days.
Series [6] has as its system subjects.
The conditions of series [7]: dose of 6 mg/kg.
Series [8] relates to amnesia caused by scopolamine. The settings on record: oral.
In series [9] the test system is patients after stroke or transient ischemic attacks. The note with it: 1000 mg daily for 28 days, then 400 mg three times per day for 5 months.
Series [10] concerns rats.
The test system of series [11] is rats. The settings on record: up to 1000 mg/kg/day.
A further series relates to beagles. The settings on record: up to 300 mg/kg/day.

Turning to `CC(C)C[C@H](NC(=O)CN(C)C(=N)N)C(=O)O` [Creatyl-L-leucine, creatyl-L-leucine], the “solubility relative to creatine and L-leucine” value is recorded as “more soluble than either creatine or L-leucine”.
For `CCNC(=O)CC[C@H](N)C(=O)O` [L-theanine, N^5-ethyl-L-glutamine], the “cognitive function, including verbal fluency, versus placebo” value in the series with subjects [1] is listed as “improved”.
As to `C[N+](C)(C)CC(=O)[O-]` [trimethylglycine], the “effects of supplementation on body composition, arm size, bench press work capacity and urinary HCTL” value in [2] is “improve body composition, arm size, and bench press work capacity, and to attenuate the rise in urinary homocysteine thiolactone (HCTL)”.
On to L-α-glycerophosphorylcholine [α-GPC], for which the mutagenic activity result in [3] is on record as “devoid of mutagenic activity”. Further, in [4], the “return of plasma choline concentration to baseline” value is on record as “returned to near baseline values over a six hour period” and the “time of peak plasma choline levels” value was “within about half an hour after the injection”. Further, the “plasma growth hormone secretion versus placebo” value in the series with healthy male subjects is recorded as “increased significantly”. In addition, in the series on subjects [5], the “lower body force production” value was “increased lower body force production”. In addition, the “peak bench press force, greater” value with subjects [6] (600 mg) is on record as 14%. In addition, in the series on subjects [6] (600 mg single dose), the “increase of peak growth hormone levels” value was 44 fold and the “peak growth hormone level after supplementation” value is 8.4 ± 2.1 ng/mL. For the same compound, the “peak growth hormone level before supplementation” value in the series on subjects [6] (600 mg single dose, starting value) is 0.19 ± 0.06 ng/mL. Besides, in series [7], the “improvement of accuracy during a reaction-time test” value is recorded as 12% and the “increase of upper body power output” value is given as 12%. In addition, in series [8], the “effect on amnesia caused by scopolamine in passive avoidance” value is on record as “reverses amnesia”. Moreover, the “dose of peak effect” value in series [8] (5 h before training) is 600 mg/kg. Besides, the cognitive recovery entry in [9] is reported as “assists in the cognitive recovery”. Further, the “oral LD50” value in the series on rats [10] is reported as ≥ 10,000 mg/kg. Besides, in the series with mice, the “oral LD50” value was ≥ 10,000 mg/kg. Moreover, the “symptomology in sub-chronic and chronic oral toxicity studies” value in the series on rats [11] was “reduced activity; slight decreases in food consumption and body weight gain; and slight reduction in liver weight”. For the same compound, in the series on beagles, the “symptomology in sub-chronic and chronic oral toxicity studies” value was “reduced activity; slight decreases in food consumption and body weight gain; and slight reduction in liver weight”.
